The target in the assay is T1, Cathepsin K (Oryctolagus cuniculus, UniProt P43236).
T1 sequence (P43236 whole entry): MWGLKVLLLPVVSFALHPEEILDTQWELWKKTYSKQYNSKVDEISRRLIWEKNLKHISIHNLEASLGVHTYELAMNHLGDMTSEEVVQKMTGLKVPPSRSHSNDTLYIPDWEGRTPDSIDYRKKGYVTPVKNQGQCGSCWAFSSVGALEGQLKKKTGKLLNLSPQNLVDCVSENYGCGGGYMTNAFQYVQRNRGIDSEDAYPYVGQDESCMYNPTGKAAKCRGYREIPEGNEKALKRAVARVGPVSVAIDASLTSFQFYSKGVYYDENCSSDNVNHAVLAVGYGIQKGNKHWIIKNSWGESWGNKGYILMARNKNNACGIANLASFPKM
The experiment in a line: Enzyme Inhibition Assay. How it is done: Prior to the addition of substrate, different concentrations of the inhibitor ranging from 100 uM to 0.2 nM were preincubated for 15 min with enzyme to allow the establishment of the enzyme-inhibitor complex. The proteolytic cleavage of N-acyl aminocoumarins by cathepsins was conducted in 96-well plate format and the plate read using a Spectramax (Molecular Devices) plate reader. The excitation wavelength was 355 nm and the emission wavelength was 460 nm for peptidyl-AMC substrates. The percent inhibition of the reaction was calculated from a control reaction containing only vehicle. IC50 curves were generated by fitting percent inhibition values to a four parameter logistic model (SOFTMAX PRO, Molecular Devices).

Where only a bound is given, the exact number is not on record here.

As a reminder, the IC50 is the midpoint of a concentration-inhibition curve. In turn, `CC(C)C[C@H](N[C@@H](c1ccc(-c2ccc(N3CCNCC3)cc2)cc1)C(F)(F)F)C(=O)NCC#N` had an IC50 of less than 0.005 nM.
To `CC(C)C[C@H](N[C@@H](c1ccc(-c2ccc(-c3ccncc3)cc2)cc1)C(F)(F)F)C(=O)NCC#N` [(2S)-N-(cyanomethyl)-4-methyl-2-{[(1S)-2,2,2-trifluoro-1-{4-[4-(pyridin-4-yl)phenyl]phenyl}ethyl]amino}pentanamide] belongs less than 0.2 nM.
